In patent US20250276972A1, “COMPOUNDS AS CASEIN KINASE INHIBITORS” (GRITSCIENCE BIOPHARMACEUTICALS CO.,LTD., priority 2020, published 2025):
pEC50: −log10 of the molar value.

Legend:
CK1δ = molecular target: T1, CK1δ (Homo sapiens, UniProt P48730); assay: CK1δ inhibition (EC50); Bmal1-dLuc or Per2-dLuc U2OS luminescence rhythm period assay; format: cell-based; conditions: Table 3
T1 construct: endogenous in cells; host or cells: Bmal1-dLuc or Per2-dLuc U2OS cells
Method: Bmall-dLuc or Per2-dLuc U2OS cells were suspended in the culture medium (DMEM supplemented with 10% fetal bovine serum, 0.29 mg/mL L-glutamine, 100 units/mL penicillin, and […] streptomycin) and plated onto 96-well white solid-bottom plates at 200 μL (10,000 cells) per well. After 2 days, 100 μL of the explant medium (DMEM supplemented with 2% B27, 10 mM HEPES, 0.38 mg/mL sodium bicarbonate, 0.29 mg/mL L-glutamine, 100 units/mL penicillin, […], 0.1 mg/mL gentamicin, and 1 mM luciferin, pH 7.2) was dispensed to each well, followed by the application of 1 μL of a compound of the present application (dissolved in DMSO; final concentration was 0.7% in DMSO). The plate was covered with an optically clear film and set to microplate reader (Infinite M200, Tecan).

[1] = Intrinsic clearance in liver microsomes (mouse); format: in vitro ADME; conditions: Mouse liver microsomes 0.5 mg/mL, 2 μM compound, 37° C.
Method: (§1) • 1. The master solution was prepared according to Table 5.
(§2) • 2. Three separated experiments were performed as follows. a) With NADPH: 10 μL of 20 mg/mL liver microsomes and 40 μL of 10 mM NADPH were added to the incubations. The final concentrations of microsomes and NADPH were 0.5 mg/mL and 1 mM, respectively. b) Without NADPH: 10 μL of 20 mg/mL liver microsomes and 40 μL of ultra-pure H2O were added to the incubations. The final concentration of microsomes was 0.5 mg/mL. c) Heat-inactivated microsomes without NADPH: 10 μL of 20 mg/mL heat-inactivated liver microsomes and 40 μL of ultra-pure H2O were added to the incubations. The final concentration of microsomes was 0.5 mg/mL. • 3. The reaction was started with the addition of 4 μL of 200 μM test compound solution or control compound solution at the final concentration of 2 μM and carried out at 37° C. • 4. Aliquots of 50 μL were taken from the reaction solution at 0, 15, 30, 45 and 60 min. […] Samples were centrifuged at 3, 220 g for 40 minutes. […] Data Analysis
(§3) Peak areas were determined from extracted ion chromatograms. The slope value, k, was determined by linear regression of the natural logarithm of the remaining percentage of the parent drug vs. incubation time curve.
(§4) The in vitro half-life (in vitro t1/2) was determined from the slope value:
(§5) Conversion of the in vitro t1/2 (min) into the in vitro intrinsic clearance (in vitro CLint, in μL/min/mg protein) was done using the following equation (mean of duplicate determinations): […]

[2] = Intrinsic clearance in liver microsomes (human); format: in vitro ADME; conditions: Human liver microsomes 0.5 mg/mL, 2 μM compound, 37° C.
Method: as §1, §2, §3, §4, §5

[3] = read-out: in vitro CLint (μL/min/mg protein)

T1 sequence (P48730 whole entry): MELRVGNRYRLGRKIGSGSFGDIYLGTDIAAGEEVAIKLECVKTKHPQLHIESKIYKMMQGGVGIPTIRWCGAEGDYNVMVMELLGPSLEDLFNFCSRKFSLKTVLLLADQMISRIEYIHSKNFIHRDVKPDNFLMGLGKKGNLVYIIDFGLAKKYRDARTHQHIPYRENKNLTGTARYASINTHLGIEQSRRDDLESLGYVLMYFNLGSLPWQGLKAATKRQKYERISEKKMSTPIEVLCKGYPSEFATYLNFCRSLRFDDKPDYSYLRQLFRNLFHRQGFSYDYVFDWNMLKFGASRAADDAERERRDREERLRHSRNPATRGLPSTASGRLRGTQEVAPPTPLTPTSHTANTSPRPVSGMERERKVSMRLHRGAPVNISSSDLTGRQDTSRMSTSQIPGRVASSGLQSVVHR

SMILES | pEC50 (CK1δ) | other results
CC(=O)Nc1cc(-c2c(-c3ccc(F)cc3)nn3c2CN(C2CC2)CC3)ccn1 [Compound I-28] | 6.22 | 
Cc1cc(-c2c(-c3ccc(F)cc3)nn3c2CN(C2COC2)CC3)ccn1 [Compound I-12, 2-(4-fluorophenyl)-3-(2-methylpyridin-4-yl)-5-(oxetan-3-yl)-4,5,6,7-tetrahydropyrazolo[1,5-a]pyrazine] | 4.70 | 
Cc1cc(-c2c(-c3ccc(F)cc3)nn3c2CN(CCO)CC3)ccn1 [Compound I-11, 2-(2-(4-fluorophenyl)-3-(2-methylpyridin-4-yl)-6,7-dihydropyrazolo[1,5-a]pyrazin-5. (4H)-yl)ethan-1-ol] |  | microsomal CLint at 2 μM [1, 3]: 16.3 µL/min/mg; half-life at 2 μM ([1]; read-out: in vitro t1/2): 1.41 h; microsomal CLint at 2 μM [2, 3]: 8.74 µL/min/mg; half-life at 2 μM ([2]; read-out: in vitro t1/2): 2.64 h
CC(=O)Nc1cc(-c2c(-c3ccc(F)cc3)nn3c2CN(CC(F)(F)F)CC3)ccn1 [Compound I-29, N-(4-(2-(4-fluorophenyl)-5-(2,2,2-trifluoroethyl)-4,5,6,7-tetrahydropyrazolo[1,5-a]pyrazin-3-yl)pyridin-2-yl)acetamide] | 6.22 | 
CNCCN1CCn2nc(-c3ccc(F)cc3)c(-c3ccnc(NC(C)=O)c3)c2C1 [Compound I-41, N-(4-(2-(4-fluorophenyl)-5-(2-(methylamino)ethyl)-4,5,6,7-tetrahydropyrazolo[1,5-a]pyrazin-3-yl)pyridin-2-yl)acetamide] | 6.22 | 
CC(C)C(=O)Nc1cc(-c2c(-c3ccc(F)cc3)nn3c2CN(C(=O)C(C)C)CC3)ccn1 [Compound I-98, N-(4-(2-(4-fluorophenyl)-5-isobutyryl-4,5,6,7-tetrahydropyrazolo[1,5-a]pyrazin-3-yl)pyridin-2-yl)isobutyramide] | 5.68 | 
CC(=O)Nc1cc(-c2c(-c3ccc(F)cc3)nn3c2CN(CCO)CC3)ccn1 [Compound I-31, N-(4-(2-(4-fluorophenyl)-5-(2-hydroxyethyl)-4,5,6,7-tetrahydropyrazolo[1,5-a]pyrazin-3-yl)pyridin-2-yl)acetamide] | 6.52 | 
CCN1CCn2nc(-c3ccc(F)cc3)c(-c3ccnc(NC(C)=O)c3)c2C1 [Compound I-26, N-(4-(5-ethyl-2-(4-fluorophenyl)-4,5,6,7-tetrahydropyrazolo[1,5-a]pyrazin-3-yl)pyridin-2-yl)acetamide] | 6.40 | 
CC(=O)Nc1cc(-c2c(-c3ccc(F)cc3)nn3c2CN(C(C)C)CC3)ccn1 [Compound I-27, N-(4-(2-(4-fluorophenyl)-5-isopropyl-4,5,6,7-tetrahydropyrazolo[1,5-a]pyrazin-3-yl)pyridin-2-yl)acetamide] | 6.30 | 
CC(=O)Nc1cc(-c2c(-c3ccc(F)cc3)nn3c2CNCC3)ccn1 [Compound I-99, N-(4-(2-(4-fluorophenyl)-4,5,6,7-tetrahydropyrazolo[1,5-a]pyrazin-3-yl)pyridin-2-yl)acetamide] | 6.15 | 
CC(C)(C)C(=O)Nc1cc(-c2c(-c3ccc(F)cc3)nn3c2CN(S(C)(=O)=O)CC3)ccn1 [Compound I-32, N-(4-(2-(4-fluorophenyl)-5-(methylsulfonyl)-4,5,6,7-tetrahydropyrazolo[1,5-a]pyrazin-3-yl)pyridin-2-yl)pivalamide] | 6.10 | 
CS(=O)(=O)N1CCn2nc(-c3ccc(F)cc3)c(-c3ccnc(N)c3)c2C1 [Compound I-25, 4-(2-(4-fluorophenyl)-5-(methylsulfonyl)-4,5,6,7-tetrahydropyrazolo[1,5-a]pyrazin-3-yl)pyridin-2-amine] | 6.17 | 
CC(=O)Nc1cc(-c2c(-c3ccc(F)cc3)nn3c2CN(C2CC(F)C2)CC3)ccn1 (stereo not drawn) [Compound I-49, N-(4-(5-(3-fluorocyclobutyl)-2-(4-fluorophenyl)-4,5,6,7-tetrahydropyrazolo[1,5-a]pyrazin-3-yl)pyridin-2-yl)acetamide] | 5.89 | 
CC(=O)Nc1cc(-c2c(-c3ccc(F)cc3)nn3c2CN(C)CC3)ccn1 [Compound I-71, N-(4-(2-(4-fluorophenyl)-5-methyl-4,5,6,7-tetrahydropyrazolo[1,5-a]pyrazin-3-yl)pyridin-2-yl)acetamide] | 6.00 | 
CC(=O)Nc1cc(-c2c(-c3ccc(F)cc3)nn3c2CN(C2COC2)CC3)ccn1 [Compound I-46, N-(4-(2-(4-fluorophenyl)-5-(oxctan-3-yl)-4,5,6,7-tetrahydropyrazolo[1,5-a]pyrazin-3-yl)pyridin-2-yl)acetamide] | 5.92 | 

Continued, in another order:

pEC50 (CK1δ) | SMILES | other results
6.70 | O=C(Cc1ccc(F)cc1)Nc1cc(-c2c(-c3ccc(F)cc3)nn3c2CN(Cc2ccccc2)CC3)ccn1 [Compound I-94, N-(4-(5-benzyl-2-(4-fluorophenyl)-4,5,6,7-tetrahydropyrazolo[1,5-a]pyrazin-3-yl)pyridin-2-yl)-2-(4-fluorophenyl)acetamide] | 
6.30 | CC(=O)Nc1cc(-c2c(-c3ccc(F)cc3)nn3c2CN(C(=O)C(F)(F)F)CC3)ccn1 [Compound I-30, N-(4-(2-(4-fluorophenyl)-5-(2,2,2-trifluoroacetyl)-4,5,6,7-tetrahydropyrazolo[1,5-a]pyrazin-3-yl)pyridin-2-yl)acetamide] | 
6.22 | CCCC(=O)Nc1cc(-c2c(-c3ccc(F)cc3)nn3c2CN(C(=O)CCC)CC3)ccn1 [Compound I-56, N-(4-(5-butyryl-2-(4-fluorophenyl)-4,5,6,7-tetrahydropyrazolo[1,5-a]pyrazin-3-yl)pyridin-2-yl)butyramide] | 
6.05 | CCC(=O)Nc1cc(-c2c(-c3ccc(F)cc3)nn3c2CN(C(=O)CC)CC3)ccn1 [Compound I-97, N-(4-(2-(4-fluorophenyl)-5-propionyl-4,5,6,7-tetrahydropyrazolo[1,5-a]pyrazin-3-yl)pyridin-2-yl)propionamide] | 
6.96 | CC(=O)N1CCn2nc(-c3ccc(F)cc3)c(-c3ccnc(NC(=O)c4ccccc4)c3)c2C1 [Compound I-73, N-(4-(5-acetyl-2-(4-fluorophenyl)-4,5,6,7-tetrahydropyrazolo[1,5-a]pyrazin-3-yl)pyridin-2-yl)benzamide] | 
5.80 | CC(=O)N1CCn2nc(-c3ccc(F)cc3)c(-c3ccnc(Nc4ccccc4)c3)c2C1 [Compound I-74, 1-(2-(4-fluorophenyl)-3-(2-(phenylamino)pyridin-4-yl)-6,7-dihydropyrazolo[1,5-a]pyrazin-5(4H)-yl)ethan-1-one] | 
6.00 | CC(=O)N1CCn2nc(-c3ccc(F)cc3)c(-c3ccnc(NC(=O)c4ccn(C)n4)c3)c2C1 [Compound I-76, N-(4-(5-acetyl-2-(4-fluorophenyl)-4,5,6,7-tetrahydropyrazolo[1,5-a]pyrazin-3-yl)pyridin-2-yl)-1-methyl-1H-pyrazole-3-carboxamide] | 
6.70 | CC(=O)N1CCn2nc(-c3ccc(F)cc3)c(-c3ccnc(NC(=O)CC4CC4)c3)c2C1 [Compound I-75, N-(4-(5-acetyl-2-(4-fluorophenyl)-4,5,6,7-tetrahydropyrazolo[1,5-a]pyrazin-3-yl)pyridin-2-yl)-2-cyclopropylacetamide] | 
5.66 | CC(=O)N1CCn2nc(-c3ccc(F)cc3)c(-c3ccnc(Nc4ccncc4)c3)c2C1 [Compound I-101, 1-(2-(4-fluorophenyl)-3-(2-(pyridin-4-ylamino)pyridin-4-yl)-6,7-dihydropyrazolo[1,5-a]pyrazin-5(4H)-yl)ethan-1-one] | 
8.00 | CC(=O)N1CCn2nc(-c3ccc(F)cc3)c(-c3ccnc(NC(=O)Cc4ccccc4)c3)c2C1 [Compound I-72, N-(4-(5-acetyl-2-(4-fluorophenyl)-4,5,6,7-tetrahydropyrazolo[1,5-a]pyrazin-3-yl)pyridin-2-yl)-2-phenylacetamide] | 
6.30 | CC(=O)Nc1cc(-c2c(-c3ccc(F)cc3)nn3c2CN(C(C)=S)CC3)ccn1 [Compound I-57] | 
5.77 | CC(=O)Nc1cc(-c2c(-c3ccc(F)cc3)nn3c2CN(Cc2ccccc2)CC3)ccn1 [Compound I-95, N-(4-(5-benzyl-2-(4-fluorophenyl)-4,5,6,7-tetrahydropyrazolo[1,5-a]pyrazin-3-yl)pyridin-2-yl)acetamide] | 
